*1 amine or outer side, *2 acyl side, *3 side chain or, on linkers, in order; H or OH if unused. Where a SMILES comes first, the peptide text is derived from it. Side-chain parts run from the residue outwards. [ ]: non-standard residue; d: D form. The star is where a group is joined. C18 diacid = O=C(O)CCCCCCCCCCCCCCCCC(=O)*; γGlu = O=C(O)[C@H](CCC(=O)[*:2])N[*:1]; AEEA = NCCOCCOCC(=O)O; Sar = CNCC(=O)O
What was measured:
[1] = system: serum calcium; experiment: Pharmacology in normal rats: serum calcium (Example 5); assay type: in vivo, Sprague Dawley rats; details: FIG. 5A; 20, 40, 80 nmol/kg SC, dose-responsive over 72 hours
Method: (§1) Each group of rats was bled immediately before the injection and after 6, 24, 48 and 72 hours. Blood was spun and serum was collected and stored at −20° C. Calcium and phosphorous concentrations were determined used commercially available assays following the manufacturer's instructions.

[2] = system: serum phosphate; experiment: Pharmacology in normal rats: serum phosphate (Example 5); assay type: in vivo, Sprague Dawley rats; details: FIG. 5B; 20, 40, 80 nmol/kg SC, dose-responsive over 72 hours
Method: as §1

[3] = system: serum calcium; experiment: Pharmacology in normal mice: serum calcium (Example 6); assay type: in vivo, C57Bl6/J mice; details: FIG. 5C, 20 or 40 nmol/kg SC, 24 and 48 hours
Method: Each group of mice was bled immediately before the injection and after 24 and 48 hours. Blood was centrifuges and serum was collected and stored at −20 C. Calcium concentrations were determined used commercially available assays following the manufacturer's instructions.

[4] = Rate of model dipeptide cleavage from hexapeptide in PBS (HPLC, LC-MS); assay type: physicochemical; details: buffer
Method: The solution was incubated at 37° C.
The flow rate was 1 ml/min.

[5] = Pharmacokinetics of A8 PTH prodrugs in monkeys, single subcutaneous dose (Example 8); assay type: in vivo, cynomolgus monkeys; details: single SC dose 25 nmol/kg, FIGS. 7A, 7B
Method: The pharmacokinetic profile of PTH analogues following a single subcutaneous dose to cynomolgus monkeys and an evaluation of the pharmacodynamic response of serum calcium and phosphorus was investigated. A total of six monkey were used in this test 2 males and 4 females ranging in age from 2-4 years old at beginning of the study and having a weight of at least 2.5 kg.
Animals were assigned to groups as noted in the Table 6 below. Animals were dosed by subcutaneous injection. Dose administration was staggered. The Group 1
male was dosed once, and the remaining two Group 1 females and all Group 2 animals were dosed once, approximately four days later. First day of dosing was designated as Study Day (SD) 1 for each animal. The dose volume was 0.3 mL/kg. Individual dose volumes were calculated based on the animals' most recently recorded body weight. […]
Pharmacokinetic mean concentration-time data was analyzed using non-compartmental methods (Phoenix® WinNonlin® Version 7.0 or higher) based on the route of administration. The following parameters were calculated whenever possible and as data allows: Cmax, Tmax, and AUC. […]
Results from these pharmacokinetic (PK) studies are provided in FIGS. 7A and 7B wherein the concentration of the administered prodrug form and its activate drug form (produced after in vivo non-enzymatic cleavage of the dipeptide prodrug element) were measured over time.

With “SVSEIQLMHNLGKHLNSMERVEWLRKKLQDVHK(γE-COC16H32CO2H)F-OH (SVSEIQLMHNLGKHLNSMERVEWLRKKLQDVHXF; K33 γE-diacidC18 acylation; C-terminal acid; SITE 33 MISC_FEATURE - Xaa at position 33 is Lys wherein the side chain is acylated with COC16H32CO2H via a gamma Glu spacer; listed as Homo sapiens) [SEQ ID NO: 102, PTH(1-34), K33(γE-diacidC18)]” the “effect on serum calcium levels” value [1] was “increase serum calcium levels”, the “effect on serum phosphate” value [2] was “reduce serum phosphate” and the “effect on serum calcium levels” value [3] was “increase serum calcium levels”.
In the case of CC[C@H](C)[C@H](NC(=O)[C@H](CCC(=O)O)NC(=O)[C@H](CO)NC(=O)[C@@H](NC(=O)[C@H](CO)NC(=O)CN(C)C(=O)[C@H](N)CCCCNC(=O)CC[C@H](NC(=O)COCCOCCNC(=O)COCCOCCNC(=O)CC[C@H](NC(=O)CCCCCCCCCCCCCCCCC(=O)O)C(=O)O)C(=O)O)C(C)C)C(=O)N[C@@H](CCC(N)=O)C(=O)N[C@@H](CC(C)C)C(=O)N[C@@H](C)C(=O)N[C@@H](Cc1c[nH]cn1)C(=O)N[C@@H](CC(N)=O)C(=O)N[C@@H](CC(C)C)C(=O)NCC(=O)N[C@@H](CCCCN)C(=O)N[C@@H](Cc1c[nH]cn1)C(=O)N[C@@H](CC(C)C)C(=O)N[C@@H](CC(N)=O)C(=O)N[C@@H](CO)C(=O)N[C@@H](CCSC)C(=O)N[C@@H](CCC(=O)O)C(=O)N[C@@H](CCCNC(=N)N)C(=O)N[C@H](C(=O)N[C@@H](CCC(=O)O)C(=O)N[C@@H](Cc1c[nH]c2ccccc12)C(=O)N[C@@H](CC(C)C)C(=O)N[C@@H](CCCNC(=N)N)C(=O)N[C@@H](CCCCN)C(=O)N[C@@H](CCCCN)C(=O)N[C@@H](CC(C)C)C(=O)N[C@@H](CCC(N)=O)C(=O)N[C@@H](CC(=O)O)C(=O)N[C@H](C(=O)N[C@@H](Cc1c[nH]cn1)C(=O)N[C@@H](CCCCNC(=O)CC[C@H](NC(=O)COCCOCCNC(=O)COCCOCCNC(=O)CC[C@H](NC(=O)CCCCCCCCCCCCCCCCC(=O)O)C(=O)O)C(=O)O)C(=O)O)C(C)C)C(C)C [SEQ ID NO: 95] (H-[dK]([γGlu-AEEA-AEEA-γGlu-C18 diacid])[Sar]SVSEIQLAHNLGKHLNSMERVEWLRKKLQDVHK([γGlu-AEEA-AEEA-γGlu-C18 diacid])-OH), the half-life at 1 mg/ml [4] is reported as greater than 20.8 days and the “plasma concentration versus singly fatty acylated prodrug SEQ ID: 94” value [5] is reported as “higher concentration that is sustained for a longer period”.

Reference: patent US20260224716A1, “PTH ANALOGS FOR THE TREATMENT OF HYPOPARATHYROIDISM” (priority 2020, published 2026)
